In patent US20220090209A1, “RETROTRANSPOSON BIOMARKERS” (VIB VZW, priority 2019, published 2022):

Legend:
MCF7 cells [1] = assay: DNA methylation in aza-treated MCF7 cells (LC-ESI-MS/MS of 5mC, BS-seq); format: cell-based, human
4T1^Hif1b-KO grafts = assay: 4T1 Hif1b-KO grafts in mice treated with aza or vehicle; format: in vivo, mouse
Description: (§1) Four gRNAs targeting two different exons in the Hif1b locus of the mouse genome and one non-targeting gRNA (scramble) were designed with the appropriate restriction sites for the receiver plasmid using the online Crispor tool (http://crispor.tefor.net). Oligonucleotides corresponding to gRNAs were synthesized by IDT, and forward and reverse oligonucleotides were annealed in the CutSmart buffer (B7240S, NEB) before cloning into the LentiGuide-Puro plasmid (Plasmid 52963, Addgene). Positive colonies were screened by PCR and validated by Sanger sequencing. LentiGuide-Puro plasmids containing GFP was used as positive control to evaluate the transfection- and transduction-efficacy.
(§2) 4T1 cells were transduced with a lentiviral vector expressing a doxycycline inducible Cas9 nuclease (Cat #CAS11229, Dharmacon) for a tight regulation of the Cas9 expression and gene editing. An infection rate of 30% was used to ensure that the majority of transduced cells harbour a single copy of the vector. These 4T1 cells were always kept in selection medium containing 10 μg/mL of blasticidin (ant-bl-05, Invivogen). When reaching 70% confluency, cells were transduced with one titer of virus. After 24h, the virus was removed and transduction efficacy evaluated based on GFP expression. After 48h, puromycin (P9620, Sigma-Aldrich) 1.5 μg/mL medium was added to the medium. Cells were kept in the presence of blasticidin and puromycin for the remaining experimental procedures. After 3-5 days, Cas9 expression was induced by adding […] (D2975000, Sigma-Aldrich) 0.5 μg/mL medium for 3 days. Cells were kept one day without […] before injection in the mice or further experimental procedures. 4T1 cells transduced with the four gRNAs targeting Hif1b were expanded and proteins were extracted to test the efficacy of the knockout by western blot. […]
(§3) All the experimental procedures were approved by the Institutional Animal Care and Research Advisory Committee of the KU Leuven. […] Tumour volumes were monitored every two to three days by a calliper, and mice were culled before tumour volumes exceeded 2,000 mm^3. […]

[2] = test system: HIF1B-knockout MCF7 cells; assay: Retrotransposon expression by mRNA-seq and RepEnrich in HIF1B-knockout MCF7 cells; format: cell-based, human
Experimental: MCF7, RCC4, SK-MEL-28, A549, 4T1, MC38 and CT26 cell lines were obtained from the American Type Culture Collection and their identity was not further authenticated. These are not listed in the database of commonly misidentified cell lines maintained by ICLAC. MCF7 HIF1B-knockout cells were previously described (Ahmed et al. 2013, Toxicol Sci 138:89-103). MCF7, RCC4, A549, MC38 and 4T1 cells were cultured at 37° C. in Dulbecco's modified Eagle medium (DMEM) with 10% fetal bovine serum (FBS), 5 mL of 100 U/mL Penicillin-Streptomycin (Pen Strep, Life Technologies) and 5 mL of L-Glutamine 200 mM. SK-MEL-28 and CT26 cell lines were cultured at 37° C. in Roswell Park Memorial Institute 1640 Medium (RPMI) with 10% FBS 1% Penicillin-Streptomycin and 1% L-Glutamine.
Where indicated, cells were pre-treated with 5-aza-2′-deoxycytidine (aza, 1 μM) for 3 days by adding the correct volume to fresh culture medium while using an equal volume of the carrier (DMSO) as control. This was followed by another day of exposure to aza in hypoxia or normoxia, bringing the total aza exposure time for experiments to 4 days. […]
RNA-seq data were expressed in transcript per million (TPM), 0.01 offset. Expression read counts of retrotransposons are calculated using the RepEnrich tool (https://github.com/nerettilab/RepEnrich), and normalized to the total mappable read depth. […]

4T1 cells = assay: Retrotransposon expression in 4T1 cells in vitro; format: cell-based, mouse
Experimental: (§4) Where indicated, cells were pre-treated with 5-aza-2′-deoxycytidine (aza, 1 μM) for 3 days by adding the correct volume to fresh culture medium while using an equal volume of the carrier (DMSO) as control. This was followed by another day of exposure to aza in hypoxia or normoxia, bringing the total aza exposure time for experiments to 4 days. 2 mM of DMOG (dimethyloxalylglycine, Sigma) was added to culture medium for 24 hours where indicated.
(§5) mRNA capture and stranded library preparation of RNA from MCF7 cells, mouse cell lines and tumours for the purpose of retrotransposon expression analysis was performed using the KAPA Stranded mRNA-Seq Kit (Illumina) according to the provided protocol.
(§6) RNA-seq data were expressed in transcript per million (TPM), 0.01 offset. Expression read counts of retrotransposons are calculated using the RepEnrich tool (https://github.com/nerettilab/RepEnrich), and normalized to the total mappable read depth. The repeat genome of the human reference genome hg19 was download from the RepEnrich website. Human retrotransposon classes (LINE, SINE, LTR) contain 16 families and 779 subfamilies. The repeat genome of the mouse genome mm10 was built using the repeat masker track from the UCSC genome browser. Mouse retrotransposon classes (LINE, SINE, LTR) contain 24 families and 906 subfamilies.

4T1^Hif1b-scr grafts = assay: 4T1 Hif1b-scr (scramble-control) grafts in mice treated with aza or vehicle; format: in vivo, mouse
Description: as §1, §2, §3

4T1 tumours [3] = assay: Growth of orthotopic 4T1 tumours in mice; format: in vivo, mouse; settings: aza versus vehicle, P=3.0×10^-3
Experimental: (§7) All the experimental procedures were approved by the Institutional Animal Care and Research Advisory Committee of the KU Leuven. 1×10^6 4T1 cells, Hif1b-knockout or wild-type (scramble), were injected orthotopically in the mammary gland of 10 weeks old Balb/c mice, and 1×10^6 CT26 or MC38 cells were injected subcutaneously in 10 weeks old Balb/c or C57BL/6J mice, respectively. When the tumour was palpable (starting volume 100 mm^3), the mice were injected intraperitoneally with 0.8 mg/kg of 5-aza-2′-deoxycytidine (aza) or PBS, 40 mg/kg DC101 antibody (BE0089, InVivoMab) or IgG (BE0060, InVivoMab) or 10 mg/kg anti-PD1 antibody (6E0146, InVivoMab) or IgG antibody (BE0089, InVivoMab) according to the following schedules: DC101 three times per week; anti-PD1 every other day, starting when the tumour size was around 200 mm^3; aza was administered in 2 cycles with 2-days rest in between until the control tumours reached the endpoint. Tumour volumes were monitored every two to three days by a calliper, and mice were culled before tumour volumes exceeded 2,000 mm^3. When over 20% of mice were culled, the experiment was terminated (all arms). In vivo experiments in 4T1, CT26 and MC38 treated with aza or anti-PD1 antibody were performed three times, with at least 6 mice per treatment group in each experiment.

4T1 tumours [4] = assay: RNA-seq of 4T1 tumours from treated mice (retrotransposon expression, immune signatures); format: in vivo, mouse
Experimental: as §5, §6, §7

MCF7 cells [5] = assay: Retrotransposon expression by mRNA-seq and RepEnrich in MCF7 cells; format: cell-based, human
Experimental: as §4, §5, §6

4T1 tumours [6] = assay: Immunofluorescence of 4T1 tumours (CD31, pimonidazole, CD8, granzyme B); format: in vivo, mouse; settings: aza versus vehicle
Experimental: as §7, with “experiment. […]” for “experiment.”

[7] = test system: HIF1β binding peaks in MCF7 cells; assay: HIF1β ChIP-seq in hypoxic vehicle- and aza-treated MCF7 cells
[8] = aza versus PBS, GSVA on immune metagenes

Nc1ncn([C@H]2C[C@H](O)[C@@H](CO)O2)c(=O)n1 [aza, 5-aza-2′-deoxycytidine]
overall reduction of DNA methylation (MCF7 cells [1]; MCF7 cells pharmacologically demethylated with aza (1 μM, 4 days)): 70.5±5.5%
reduced methylation at new HIF1β binding sites in aza-treated cells (MCF7 cells [1]; aza-treated versus untreated MCF7 cells): 2.5 fold
cancer testis antigen expression (4T1^Hif1b-KO grafts; aza treatment): significant upregulation
graft size (4T1^Hif1b-KO grafts; aza versus vehicle, P=0.21): failed to show this reduction
number of activated T cells (4T1^Hif1b-KO grafts; following aza): failed to show such increase
retrotransposon overexpression (increase) ([2]; aza alone): 25%
retrotransposon overexpression (increase) ([2]; aza in hypoxia): 20%
retrotransposon expression (4T1 cells): increase
cancer testis antigen expression (4T1^Hif1b-scr grafts; aza treatment): significant upregulation
graft size (4T1^Hif1b-scr grafts; aza versus vehicle, P=0.021): significantly reduced size
number of activated T cells (4T1^Hif1b-scr grafts; following aza): increased
change in tumour growth (4T1 tumours [3]): −32%
activated T cell and natural killer cell signatures (4T1 tumours [4]; [8]): upregulated
myeloid-derived suppressor cell signatures (4T1 tumours [4]; [8]): downregulated
cell proliferation marker expression (4T1 tumours [4]; aza versus vehicle): did not reduce
retrotransposon expression (4T1 tumours [4]; in vivo, aza versus vehicle): increased
increase in expression of the 176 retrotransposon subfamilies bound by HIF1β (MCF7 cells [5]; aza alone): 23%
expression of the 59 retrotransposons correlated with cytolytic activity (MCF7 cells [5]; aza-treated MCF7 cells, P<0.05): upregulated
average increase in retrotransposon expression (MCF7 cells [5]; combined aza and chronic (4-day) hypoxia): 45%
increase in expression of the 176 retrotransposon subfamilies bound by HIF1β (MCF7 cells [5]; combined aza and hypoxia (24 hours, 0.5% O2)): 27%
increase in number of activated, granzyme B-positive T cells (4T1 tumours [6]; P<0.05): 2.1 fold
T-cell infiltration (4T1 tumours [6]; immunofluorescence of CD8+ T cells): unaffected
new HIF1β binding peaks exposed ([7]; HIF1β ChIP-seq, hypoxia 0.5% O2 16 hours): 1,236
fraction of aza-specific HIF1β binding peaks in retrotransposons ([7]; versus 4.1% in vehicle-treated MCF7 cells): 8.1%
enrichment of novel aza-specific HIF1β binding peaks for retrotransposons ([7]; versus peaks in vehicle-treated MCF7 cells): 2 fold
